Source: patent US20260166128A1, “HUMAN AMYLIN ANALOG, AND DERIVATIVE THEREOF AND USE THEREOF” (priority 2022, published 2026)
Numbered stars: 1 amine (or outer) side, 2 acyl side, 3 side chain; on linkers, the order of the positions; unused ones are H or OH. Bridge positions count the residues as written; N and C are the ends. Square brackets hold non-standard residues; d marks the D form. Side chains are listed from the residue outwards. Peptide text beside a SMILES is read from it. * marks the point of attachment. C20 diacid = O=C(O)CCCCCCCCCCCCCCCCCCC(=O)*; C18 diacid = O=C(O)CCCCCCCCCCCCCCCCC(=O)*; γGlu = O=C(O)[C@H](CCC(=O)[*:2])N[*:1]; Hyp = O=C(O)[C@@H]1C[C@@H](O)CN1; AEEA = NCCOCCOCC(=O)O

Key:
[1] = Freeze-thaw stability of derivatives (freeze-thaw yield by liquid chromatography); assay type: physicochemical; settings: for Dissolution property: appearance after dissolution at 0.2 mg/ml in 20 mM phosphate buffer solution (PB) (pH 7.0); for Freeze storage property: appearance after overnight storage at −20° C. and thawing to room temperature, 0.2 mg/ml in 20 mM PB (pH 7.0); for Freeze storage yield: concentration of polypeptide after freezing and thawing / concentration before, by liquid chromatography, −20° C. overnight
Summary of the method: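 Lyophilised peptide derivative dissolved at 0.2 mg/ml in 20 mM phosphate buffer, pH 7.0, frozen overnight at −20° C, then thawed at room temperature. Peptide concentration before and after freeze-thaw measured by reversed-phase HPLC on centrifuged supernatant; yield = post-thaw/pre-thaw concentration.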

[2] = biological target: T1, human amylin receptor (Homo sapiens, UniProt O60896+P30988); test: Luciferase assay of amylin derivatives in amylin receptor/CRE-luc CHO cell line; assay type: cell-based; settings: CHO-K1/Ga15/AMY3 CRE-luc cells, 24 hours incubation, F12 medium containing 10% FBS; read-out: EC50
T1 construct: host or cells: CHO-K1/Ga15/AMY3 cells, further stably transfected with a CRE-luciferase plasmid
T1 sequence (P30988 25-474): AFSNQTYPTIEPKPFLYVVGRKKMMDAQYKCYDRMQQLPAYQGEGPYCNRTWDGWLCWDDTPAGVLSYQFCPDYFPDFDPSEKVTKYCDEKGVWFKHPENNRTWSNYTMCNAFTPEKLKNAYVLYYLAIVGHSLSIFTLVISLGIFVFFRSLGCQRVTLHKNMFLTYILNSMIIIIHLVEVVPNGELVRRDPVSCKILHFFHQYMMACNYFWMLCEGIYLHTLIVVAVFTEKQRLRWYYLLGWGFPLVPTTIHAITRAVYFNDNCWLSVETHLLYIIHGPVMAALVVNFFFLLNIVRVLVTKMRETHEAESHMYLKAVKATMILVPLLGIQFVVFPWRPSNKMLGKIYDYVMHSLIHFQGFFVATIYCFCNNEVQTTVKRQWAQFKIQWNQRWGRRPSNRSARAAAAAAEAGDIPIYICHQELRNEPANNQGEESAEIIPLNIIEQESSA
T1 sequence (O60896 24-148 partner): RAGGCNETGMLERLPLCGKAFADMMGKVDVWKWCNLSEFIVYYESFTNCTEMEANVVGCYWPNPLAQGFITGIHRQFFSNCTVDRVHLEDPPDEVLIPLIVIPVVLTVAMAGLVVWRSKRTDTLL
Description: The experiment was intended to detect the activity or efficacy of the amylin derivatives on a human amylin receptor in vitro by luciferase assay.
50 μL of growth medium (F12 medium containing 10% FBS) was added into each well of a white 96-well plate, and the stably transfected amylin/CRE-lue CHO cells were inoculated into the white 96-well plate at a density of about 20,000 cells/well for activity determination.

Dissolution property [1]	Freeze storage property [1]	Freeze storage yield [1]	EC50 [2]	SMILES
Clear	Clear	98.68%	0.033 nM	CC[C@H](C)[C@H](NC(=O)[C@H](CCCCNC(=O)COCCOCCNC(=O)COCCOCCNC(=O)CC[C@H](NC(=O)CCCCCCCCCCCCCCCCCCC(=O)O)C(=O)O)NC(=O)CNC(=O)[C@H](CC(C)C)NC(=O)[C@H](CC(N)=O)NC(=O)[C@H](CC(N)=O)NC(=O)[C@H](CO)NC(=O)[C@H](CO)NC(=O)[C@H](Cc1c[nH]cn1)NC(=O)[C@H](CCCNC(=N)N)NC(=O)[C@H](CC(C)C)NC(=O)[C@H](Cc1ccccc1)NC(=O)[C@H](CC(=O)O)NC(=O)[C@H](C)NC(=O)[C@H](CC(C)C)NC(=O)[C@H](CCCNC(=N)N)NC(=O)[C@H](CCC(N)=O)NC(=O)[C@@H](NC(=O)[C@H](C)NC(=O)[C@@H]1CSSC[C@H](NC(=O)[C@@H](N)CCCNC(=N)N)C(=O)N[C@@H](CC(N)=O)C(=O)N[C@@H]([C@@H](C)O)C(=O)N[C@@H](C)C(=O)N[C@@H]([C@@H](C)O)C(=O)N1)[C@@H](C)O)C(=O)N[C@@H](CC(C)C)C(=O)N1CCC[C@H]1C(=O)N1CCC[C@H]1C(=O)N[C@H](C(=O)N[C@@H](CC(N)=O)C(=O)N[C@H](C(=O)NCC(=O)N[C@@H](CO)C(=O)N[C@@H](CC(N)=O)C(=O)N[C@H](C(=O)N1C[C@H](O)C[C@H]1C(N)=O)[C@@H](C)O)C(C)C)[C@@H](C)O [PD103] (H-RCNTATCATQRLADFLRHSSNNLGK([AEEA-AEEA-γGlu-C20 diacid])ILPPTNVGSNT[Hyp]-NH2; disulfide 2-7 (inferred); N-terminus assumed)
Clear	Clear	96.86%	0.028 nM	CC[C@H](C)[C@H](NC(=O)[C@@H]1CCCN1C(=O)[C@H](CCCCNC(=O)COCCOCCNC(=O)CC[C@H](NC(=O)CCCCCCCCCCCCCCCCC(=O)O)C(=O)O)NC(=O)[C@H](CC(C)C)NC(=O)[C@H](CC(N)=O)NC(=O)[C@H](CC(N)=O)NC(=O)[C@H](CO)NC(=O)[C@H](CO)NC(=O)[C@H](Cc1c[nH]cn1)NC(=O)[C@H](CCCNC(=N)N)NC(=O)[C@H](CC(C)C)NC(=O)[C@H](Cc1ccccc1)NC(=O)[C@H](CC(=O)O)NC(=O)[C@H](C)NC(=O)[C@H](CC(C)C)NC(=O)[C@H](CCCNC(=N)N)NC(=O)[C@H](CCC(N)=O)NC(=O)[C@@H](NC(=O)[C@H](C)NC(=O)[C@@H]1CSSC[C@H](NC(=O)[C@@H](N)CCCNC(=N)N)C(=O)N[C@@H](CC(N)=O)C(=O)N[C@@H]([C@@H](C)O)C(=O)N[C@@H](C)C(=O)N[C@@H]([C@@H](C)O)C(=O)N1)[C@@H](C)O)C(=O)N[C@@H](CC(C)C)C(=O)N1CCC[C@H]1C(=O)N1CCC[C@H]1C(=O)N[C@H](C(=O)N[C@@H](CC(N)=O)C(=O)N[C@H](C(=O)NCC(=O)N[C@@H](CO)C(=O)N[C@@H](CC(N)=O)C(=O)N[C@H](C(=O)N1C[C@H](O)C[C@H]1C(N)=O)[C@@H](C)O)C(C)C)[C@@H](C)O [PD108] (H-RCNTATCATQRLADFLRHSSNNLK([AEEA-γGlu-C18 diacid])PILPPTNVGSNT[Hyp]-NH2; disulfide 2-7 (inferred); N-terminus assumed)
Clear	Clear	101.02%	0.029 nM	CC[C@H](C)[C@H](NC(=O)[C@@H]1CCCN1C(=O)CNC(=O)[C@H](CC(C)C)NC(=O)[C@H](CC(N)=O)NC(=O)[C@H](CCCCNC(=O)COCCOCCNC(=O)CC[C@H](NC(=O)CCCCCCCCCCCCCCCCCCC(=O)O)C(=O)O)NC(=O)[C@H](CO)NC(=O)[C@H](CO)NC(=O)[C@H](Cc1c[nH]cn1)NC(=O)[C@H](CCCNC(=N)N)NC(=O)[C@H](CC(C)C)NC(=O)[C@H](Cc1ccccc1)NC(=O)[C@H](CC(=O)O)NC(=O)[C@H](C)NC(=O)[C@H](CC(C)C)NC(=O)[C@H](CCCNC(=N)N)NC(=O)[C@H](CCC(N)=O)NC(=O)[C@@H](NC(=O)[C@H](C)NC(=O)[C@@H]1CSSC[C@H](NC(=O)[C@@H](N)CCCNC(=N)N)C(=O)N[C@@H](CC(N)=O)C(=O)N[C@@H]([C@@H](C)O)C(=O)N[C@@H](C)C(=O)N[C@@H]([C@@H](C)O)C(=O)N1)[C@@H](C)O)C(=O)N[C@@H](CC(C)C)C(=O)N1CCC[C@H]1C(=O)N1CCC[C@H]1C(=O)N[C@H](C(=O)N[C@@H](CC(N)=O)C(=O)N[C@H](C(=O)NCC(=O)N[C@@H](CO)C(=O)N[C@@H](CC(N)=O)C(=O)N[C@H](C(=O)N1C[C@H](O)C[C@H]1C(N)=O)[C@@H](C)O)C(C)C)[C@@H](C)O [PD114] (H-RCNTATCATQRLADFLRHSSK([AEEA-γGlu-C20 diacid])NLGPILPPTNVGSNT[Hyp]-NH2; disulfide 2-7 (inferred); N-terminus assumed)
Clear	Clear	93.49%	0.014 nM	CC[C@H](C)[C@H](NC(=O)[C@@H]1CCCN1C(=O)CNC(=O)[C@H](CC(C)C)NC(=O)[C@H](CC(N)=O)NC(=O)[C@H](CC(N)=O)NC(=O)[C@H](CCCCNC(=O)COCCOCCNC(=O)CC[C@H](NC(=O)CCCCCCCCCCCCCCCCC(=O)O)C(=O)O)NC(=O)[C@H](CO)NC(=O)[C@H](Cc1c[nH]cn1)NC(=O)[C@H](CCCNC(=N)N)NC(=O)[C@H](CC(C)C)NC(=O)[C@H](Cc1ccccc1)NC(=O)[C@H](CC(=O)O)NC(=O)[C@H](C)NC(=O)[C@H](CC(C)C)NC(=O)[C@H](CCCNC(=N)N)NC(=O)[C@H](CCC(N)=O)NC(=O)[C@@H](NC(=O)[C@H](C)NC(=O)[C@@H]1CSSC[C@H](NC(=O)[C@@H](N)CCCNC(=N)N)C(=O)N[C@@H](CC(N)=O)C(=O)N[C@@H]([C@@H](C)O)C(=O)N[C@@H](C)C(=O)N[C@@H]([C@@H](C)O)C(=O)N1)[C@@H](C)O)C(=O)N[C@@H](CC(C)C)C(=O)N1CCC[C@H]1C(=O)N1CCC[C@H]1C(=O)N[C@H](C(=O)N[C@@H](CC(N)=O)C(=O)N[C@H](C(=O)NCC(=O)N[C@@H](CO)C(=O)N[C@@H](CC(N)=O)C(=O)N[C@H](C(=O)N1C[C@H](O)C[C@H]1C(N)=O)[C@@H](C)O)C(C)C)[C@@H](C)O [PD117] (H-RCNTATCATQRLADFLRHSK([AEEA-γGlu-C18 diacid])NNLGPILPPTNVGSNT[Hyp]-NH2; disulfide 2-7 (inferred); N-terminus assumed)
Clear	Clear	103.04%	0.024 nM	CC[C@H](C)[C@H](NC(=O)[C@@H]1CCCN1C(=O)CNC(=O)[C@H](CC(C)C)NC(=O)[C@H](CC(N)=O)NC(=O)[C@H](CC(N)=O)NC(=O)[C@H](CO)NC(=O)[C@H](CCCCNC(=O)COCCOCCNC(=O)CC[C@H](NC(=O)CCCCCCCCCCCCCCCCC(=O)O)C(=O)O)NC(=O)[C@H](Cc1c[nH]cn1)NC(=O)[C@H](CCCNC(=N)N)NC(=O)[C@H](CC(C)C)NC(=O)[C@H](Cc1ccccc1)NC(=O)[C@H](CC(=O)O)NC(=O)[C@H](C)NC(=O)[C@H](CC(C)C)NC(=O)[C@H](CCCNC(=N)N)NC(=O)[C@H](CCC(N)=O)NC(=O)[C@@H](NC(=O)[C@H](C)NC(=O)[C@@H]1CSSC[C@H](NC(=O)[C@@H](N)CCCNC(=N)N)C(=O)N[C@@H](CC(N)=O)C(=O)N[C@@H]([C@@H](C)O)C(=O)N[C@@H](C)C(=O)N[C@@H]([C@@H](C)O)C(=O)N1)[C@@H](C)O)C(=O)N[C@@H](CC(C)C)C(=O)N1CCC[C@H]1C(=O)N1CCC[C@H]1C(=O)N[C@H](C(=O)N[C@@H](CC(N)=O)C(=O)N[C@H](C(=O)NCC(=O)N[C@@H](CO)C(=O)N[C@@H](CC(N)=O)C(=O)N[C@H](C(=O)N1C[C@H](O)C[C@H]1C(N)=O)[C@@H](C)O)C(C)C)[C@@H](C)O [PD119] (H-RCNTATCATQRLADFLRHK([AEEA-γGlu-C18 diacid])SNNLGPILPPTNVGSNT[Hyp]-NH2; disulfide 2-7 (inferred); N-terminus assumed)
